The text below walks through data of ChEMBL document CHEMBL2046380, “Synthesis and structure-activity relationship of disubstituted benzamides as a novel class of antimalarial agents” (Bioorg Med Chem Lett, 2012).

A value given as a limit tells only on which side of the number the result lay.

In assay [1] the test system is Plasmodium falciparum. Kind of assay: Antimalarial activity against […] incubated for 72 hrs by DNA staining based MARK1 growth inhibition assay. Format: functional, organism-based.
The test system of assay [2] is Plasmodium falciparum. Kind of assay: Antimalarial activity against chloroquine-sensitive Plasmodium falciparum 3D7 incubated for 72 hrs by DNA staining based MAR3D7 growth inhibition assay. The format is functional, organism-based. The conditions noted are these: 3D7, 72 h.
The next assay deals with HepG2. Briefly: Cytotoxicity against human HepG2 cells after 72 hrs by […] CellTiterGlo reagent assay. Format: cell-based. The conditions noted are these: HepG2, 72 h. (In general: Alamar Blue is a resazurin reagent that responds to reducing activity.)
Another assay relates to Raji. Briefly: Cytotoxicity against human Raji cells after 72 hrs by […] CellTiterGlo reagent assay. Format: cell-based.
The subject of the next assay is BJ. Kind of assay: Cytotoxicity against human BJ cells after 72 hrs by […] CellTiterGlo reagent assay. Format: cell-based.
A further assay concerns HEK293. Kind of assay: Cytotoxicity against human HEK293 cells after 72 hrs by […] CellTiterGlo reagent assay. Format: cell-based. The note with it: HEK293, 72 h.

`CC(C)N(Cc1ccc(OCCCCCC(=O)O)cc1)C(=O)c1ccc(-c2ccc3c(c2)OCO3)cc1`: the EC50 – broadly, the concentration at which the effect is half-maximal – in the assay on Plasmodium falciparum [1] was 1.82 µM; with Plasmodium falciparum [2], > 15 µM; with HepG2 it was > 26 µM; in the assay with Raji, > 26 µM; in the assay with BJ, > 26 µM; with HEK293 it was > 26 µM.

On to `CC(C)N(Cc1ccccc1OCCCCCC(=O)O)C(=O)c1ccc(-c2ccc3c(c2)OCO3)cc1`, for which the concentration giving a half-maximal response (EC50) was > 15 µM with Plasmodium falciparum [1]; > 15 µM in the assay with Plasmodium falciparum [2]; > 26 µM in the assay on HepG2; > 26 µM in the assay on Raji; > 26 µM in the assay on BJ; > 26 µM in the assay on HEK293.

As to `CCCN(Cc1cccc(OCCCCCC(=O)O)c1)C(=O)c1ccc(-c2ccc3c(c2)OCO3)cc1`, the EC50 in the assay with Plasmodium falciparum [1] was 0.995 µM; with Plasmodium falciparum [2] it was 0.174 µM; with HepG2 it was > 26 µM; in the assay on Raji, > 26 µM; with BJ, > 26 µM; with HEK293, > 26 µM.

As to `CCCN(Cc1ccc(OCCCCCC(=O)O)cc1)C(=O)c1ccc(-c2ccc3c(c2)OCO3)cc1`, the 50% effective concentration (EC50) in the assay on Plasmodium falciparum [1] was 0.928 µM; in the assay on Plasmodium falciparum [2], > 15 µM; in the assay with HepG2 it was > 26 µM; in the assay on Raji, > 26 µM; in the assay on BJ, > 26 µM; in the assay with HEK293, > 26 µM.

`CCCN(Cc1ccccc1OCCCCCC(=O)O)C(=O)c1ccc(-c2ccc3c(c2)OCO3)cc1`: the EC50 in the assay with Plasmodium falciparum [1] is > 15 µM; in the assay on Plasmodium falciparum [2], > 15 µM; in the assay with HepG2 it was > 26 µM; in the assay on Raji, > 26 µM; with BJ, > 26 µM; in the assay with HEK293, > 26 µM.

In the case of `CCOC(=O)CCCCCOc1cccc(CN(C(=O)c2ccc(-c3ccc4c(c3)OCO4)cc2)C(C)C)c1`, the EC50 is > 12.5 µM with Plasmodium falciparum [1]; > 12.5 µM in the assay with Plasmodium falciparum [2]; > 22.6 µM with HepG2; > 22.6 µM with Raji; > 22.6 µM in the assay with BJ; > 22.6 µM with HEK293.

For `CCOC(=O)CCCCCOc1ccc(CN(C(=O)c2ccc(-c3ccc4c(c3)OCO4)cc2)C(C)C)cc1`, the concentration giving a half-maximal response (EC50) in the assay with Plasmodium falciparum [1] is > 15 µM; in the assay on Plasmodium falciparum [2] it was > 15 µM; in the assay with HepG2, > 26 µM; in the assay on Raji, > 26 µM; with BJ, > 26 µM; with HEK293, > 26 µM.

As for `CCOC(=O)CCCCCOc1ccccc1CN(C(=O)c1ccc(-c2ccc3c(c2)OCO3)cc1)C(C)C`, the EC50 with Plasmodium falciparum [1] is > 15 µM; in the assay with Plasmodium falciparum [2] it was > 15 µM; with HepG2 it was > 26 µM; in the assay on Raji, > 26 µM; in the assay on BJ, > 26 µM; in the assay on HEK293, > 26 µM.

`CCCN(Cc1cccc(OCCCCCC(=O)OCC)c1)C(=O)c1ccc(-c2ccc3c(c2)OCO3)cc1`: the EC50 with Plasmodium falciparum [1] was > 15 µM; in the assay on Plasmodium falciparum [2], > 15 µM; with HepG2, > 26 µM; in the assay on Raji, > 26 µM; with BJ it was > 26 µM; in the assay on HEK293, > 26 µM.

As to `CCCN(Cc1ccc(OCCCCCC(=O)OCC)cc1)C(=O)c1ccc(-c2ccc3c(c2)OCO3)cc1`, the half-maximal effective concentration (EC50) in the assay on Plasmodium falciparum [1] was > 15 µM; in the assay on Plasmodium falciparum [2], > 15 µM; in the assay on HepG2, > 26 µM; in the assay with Raji it was > 26 µM; with BJ it was > 26 µM; in the assay on HEK293, > 26 µM.

In the case of `CCCN(Cc1ccccc1OCCCCCC(=O)OCC)C(=O)c1ccc(-c2ccc3c(c2)OCO3)cc1`, the 50% effective concentration (EC50) with Plasmodium falciparum [1] is > 15 µM; in the assay with Plasmodium falciparum [2], > 15 µM; in the assay on HepG2 it was > 26 µM; with Raji, > 26 µM; in the assay on BJ, > 26 µM; in the assay with HEK293, > 26 µM.

For `CCOC(=O)CCCCCOc1cccc(CN(C(=O)c2ccc(Br)cc2)C(C)C)c1`, the EC50 in the assay on Plasmodium falciparum [1] is > 15 µM; in the assay with Plasmodium falciparum [2] it was > 15 µM; with HepG2, > 26 µM; in the assay with Raji, > 26 µM; in the assay on BJ it was > 26 µM; with HEK293 it was > 26 µM.

For the compound `CCCN(Cc1ccc(OCCCCCC(=O)OCC)cc1)C(=O)c1ccc(Br)cc1`, the EC50 in the assay on Plasmodium falciparum [1] is > 15 µM; in the assay with Plasmodium falciparum [2], > 15 µM; in the assay on HepG2 it was > 26 µM; in the assay with Raji, > 26 µM; with BJ it was > 26 µM; with HEK293, > 26 µM.

Consider `CCOC(=O)CCCCCOc1ccccc1CNC(C)C`, for which the EC50 was > 15 µM in the assay on Plasmodium falciparum [1]; > 15 µM in the assay with Plasmodium falciparum [2]; > 26 µM with HepG2; > 26 µM with Raji; > 26 µM with BJ; > 26 µM in the assay on HEK293.

In the case of `CC(C)N(Cc1cccc(OCCCCCC(=O)O)c1)C(=O)c1ccc(-c2ccc3c(c2)OCO3)cc1`, the EC50 in the assay with Plasmodium falciparum [1] was 0.438 µM; in the assay on Plasmodium falciparum [2], 0.0604 µM; with HepG2 it was > 26 µM; in the assay with Raji, > 26 µM; in the assay on BJ it was > 26 µM; with HEK293, > 26 µM.

With `CCOC(=O)CCCCCOc1cccc(CNC(C)C)c1`, the EC50 in the assay with Plasmodium falciparum [1] was > 15 µM; with Plasmodium falciparum [2], > 15 µM; in the assay on HepG2, > 26 µM; in the assay with Raji, > 26 µM; in the assay on BJ it was > 26 µM; with HEK293, > 26 µM.

As for `CCOC(=O)CCCCCOc1ccc(CNC(C)C)cc1`, the concentration giving a half-maximal response (EC50) with Plasmodium falciparum [1] is > 15 µM; in the assay on Plasmodium falciparum [2], > 15 µM; in the assay on HepG2, > 26 µM; with Raji it was > 26 µM; in the assay on BJ it was > 26 µM; in the assay on HEK293 it was > 26 µM.

As for `CCCNCc1ccccc1OCCCCCC(=O)OCC`, the 50% effective concentration (EC50) was > 15 µM with Plasmodium falciparum [1]; > 15 µM in the assay on Plasmodium falciparum [2]; > 26 µM in the assay on HepG2; > 26 µM in the assay with Raji; > 26 µM in the assay on BJ; > 26 µM in the assay with HEK293.

For the compound `CCCNCc1cccc(OCCCCCC(=O)OCC)c1`, the EC50 in the assay with Plasmodium falciparum [1] is > 15 µM; with Plasmodium falciparum [2], > 15 µM; in the assay with HepG2 it was > 26 µM; in the assay on Raji it was > 26 µM; in the assay on BJ, > 26 µM; in the assay on HEK293, > 26 µM.

In the case of `CCCNCc1ccc(OCCCCCC(=O)OCC)cc1`, the half-maximal effective concentration (EC50) was > 15 µM with Plasmodium falciparum [1]; > 15 µM in the assay on Plasmodium falciparum [2]; > 26 µM in the assay with HepG2; > 26 µM in the assay on Raji; > 26 µM with BJ; > 26 µM in the assay with HEK293.

For the compound `CCOC(=O)CCCCCOc1ccccc1C=O`, the concentration giving a half-maximal response (EC50) in the assay with Plasmodium falciparum [1] is > 15 µM; in the assay with Plasmodium falciparum [2], > 15 µM; in the assay on HepG2 it was > 26 µM; in the assay on Raji, > 26 µM; in the assay with BJ, > 26 µM; in the assay on HEK293, > 26 µM.

Take `CC(C)N(Cc1cccc(OCCCCCC(=O)O)c1)C(=O)c1ccc(-c2cccc3ccccc23)cc1`: the EC50 with Plasmodium falciparum [1] was > 15 µM; with Plasmodium falciparum [2], > 15 µM; with HepG2 it was > 26 µM; in the assay on Raji, > 26 µM; with HEK293 it was > 26 µM.

Consider `CCOC(=O)CCCCCOc1cccc(CN(C(=O)c2ccc(-c3cccc(C(F)(F)F)c3)cc2)C(C)C)c1`, for which the EC50 is > 15 µM in the assay with Plasmodium falciparum [1]; > 15 µM in the assay with Plasmodium falciparum [2]; > 26 µM in the assay on HepG2; > 26 µM with Raji; > 26 µM with HEK293.

Regarding `CCOC(=O)CCCCCOc1cccc(CN(C(=O)c2ccc(-c3cccc([N+](=O)[O-])c3)cc2)C(C)C)c1`, the EC50 in the assay with Plasmodium falciparum [1] was > 15 µM; in the assay on Plasmodium falciparum [2], > 15 µM; in the assay on HepG2 it was > 26 µM; with Raji it was > 26 µM; in the assay with HEK293, > 26 µM.
